This passage reports inhibition and IC50 results from patent US9029080B2, “Screening assay for insecticides” (priority 2008, dated 2015).

Molecules are shown by their SMILES.

For orientation: IC50 means the point on the concentration scale where inhibition reaches its midpoint.

In the first test the target is T1, ShaI/KChIP (Drosophila melanogaster, UniProt P17971).
T1 construct: expressed in transfected cells; subclone 18-13-20
T1 sequence (P17971 with tags, fused parts or gaps isoform P17971-1): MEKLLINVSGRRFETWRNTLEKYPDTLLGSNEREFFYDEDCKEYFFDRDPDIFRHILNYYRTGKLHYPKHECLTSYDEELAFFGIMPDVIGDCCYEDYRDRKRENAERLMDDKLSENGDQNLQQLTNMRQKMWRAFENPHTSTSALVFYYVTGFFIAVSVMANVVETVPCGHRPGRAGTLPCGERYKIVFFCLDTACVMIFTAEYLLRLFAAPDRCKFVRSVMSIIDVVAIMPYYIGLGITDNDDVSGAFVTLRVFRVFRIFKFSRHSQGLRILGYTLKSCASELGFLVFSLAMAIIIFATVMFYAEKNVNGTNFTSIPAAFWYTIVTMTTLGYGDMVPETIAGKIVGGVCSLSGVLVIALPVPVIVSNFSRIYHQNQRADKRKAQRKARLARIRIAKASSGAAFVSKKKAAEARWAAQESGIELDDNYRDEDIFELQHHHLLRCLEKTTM
The test is described as follows: ShaI/KChIP FLIPR membrane potential assay, KCl depolarization.
Details: not given
The test is classed as cell-based. As to the method:
This assay uses two fluid additions to permit the detection of activators and antagonists in a single experiment (FIG. 17). In screening, test compounds are added in the first addition and allowed to incubate for three minutes. An activating dose of KCl is then introduced in the second addition and the fluorescence read for an additional three minutes. Controls are run for both additions.
Cells were dispensed in a 50 μl volume containing 7,500 cells into 384-well TC clear/black assay plates (Greiner 781091) using a Multidrop 384 dispenser, incubated at ambient temperature for one hour (to reduce edge effects), and incubated overnight at 37° C./5% CO2. The cells were assayed 18-24 hours after seeding, at which point they were just approaching confluency in the wells. Culture medium was removed by flicking and tapping it out of the plate, and cells were loaded with 20 ul/well of 1× blue membrane potential dye in assay buffer for 30 minutes at 25° C. After 30 minutes the assay plate was placed into the FLIPR and run using a two-addition protocol. The first addition (5×, 5 ul) contained 2.5% DMSO in assay buffer. The pipetting height was set at 15 and the speed 20. The plate was read for three minutes after this addition. The second addition (2×, 25 ul) was either assay buffer or 120 mM isometrically-substituted KCl (i.e., KCl substituted for NaCl on a 1:1 molar basis). The height was 20 and the speed 25. Aspirate speeds were set at the lowest values and no hold or expel volumes applied. The plate was read for an additional three minutes after the second addition. The exported statistics were typically configured as stat1=average of 190-200 (the interval just before the first addition) and stat2=maximum of 260-maximum allowed. Subtract bias was set at 1 and negative control correction was OFF. Z′ statistics (an index of “screenability”, Z′>0.5=single-pass screen) were calculated using the following formula: Z′=1−((3σmax+3σmin)/(Iμmax−μminI)).
FIG. 32: BIOMOL compounds—primary screening data. ScreenWorks screenshots showing primary FLIPR data for BIOMOL compound screening. ShaI/KChIP 20 cells were plated at 7500 cells/well in 384-well assay plates and screened the following day. Culture medium was removed by flicking the plates and the cells were loaded with 20 ul 1× membrane potential dye per well for 0.5 hours at 25° C. A two-addition protocol was used. The first addition was 5 ul 5× control or compound in 2.5% DMSO in assay buffer (0.5% [final]) read for 180 sec, and the second addition was 25 ul 2× control or 120 mM isometrically-substituted KCl in assay buffer (0-60 mM [final]) read for an additional 180 sec. Statistics were exported using the average of reads 180-200 and the maximum of reads 260-maximum allowed. Subtract bias was set at 1 and negative control correction was OFF. Control columns ½ and 23/24 are described starting on pg. 53 of this document. Inset: Screenshot of group averages for the control and compound wells highlighted in the primary data screen.
The 3222 unique members of the BioFocus SoftFocus Ion Channel Libraries #1-4 (#SF101-04) were screened in 384-well four-point mode against ShaI/KChIP at 10 uM in a combined activator and antagonist screen. The same FLIPR protocol was used as for the BIOMOL screening and was carried out over four non-consecutive days. The following compound preparation protocol was used to prepare screening plates: Briefly, ShaI-KChIP cells were seeded in 384-well plates at 7500 cells/well in 50 ul and incubated overnight at 37° C./5% CO2. The next day, culture medium was removed, 20 ul of 1×FMP dye was added, and the cell plate was incubated at 27° C. for 30 minutes. After incubation, the cell plate was placed into the Tetra and a two-addition protocol was used. The 1st addition was 5 μl of 5× compound (50 μM) with a three minute read. […] The 2nd addition was 25 ul of 2× activation buffer (120 mM isometric KCl substitution for NaCl) and read for an additional two minutes. […]
As to `CC1(c2ccccc2)C(=O)Nc2ccccc21` (stereo not shown), the inhibition at 10 µM stood at 42.6%.

Molecule `COc1ccc(C(C)=O)cc1CC1(c2ccc3c(c2)OCO3)C(=O)Nc2ccccc21` (stereo not shown) came in with an inhibition at 10 µM of 35.2%.

For the molecule `CC1(Cc2cc(Cl)ccc2C(F)(F)F)C(=O)Nc2ccccc21` (stereo not shown), the inhibition at 10 µM is 32.5%.

Turning to `CC1(Cc2ccccc2C#N)C(=O)Nc2ccccc21` (stereo not shown), the inhibition at 10 µM was 39.7%.

`Cc1ccsc1C1(C)C(=O)Nc2ccccc21` (stereo not shown): the inhibition at 10 µM is 56.8%.

In turn, `CCC1(c2sccc2C)C(=O)Nc2ccccc21` (stereo not shown) had an inhibition at 10 µM of 52%.

Molecule `COc1ccc2c(c1)C(C)(Cc1ccc(Cl)s1)C(=O)N2` (stereo not shown) gave an inhibition at 10 µM of 38.3%.

Turning to `O=C1Nc2ccc(F)cc2C1(Cc1ccccn1)c1ccc(Cl)cc1` (stereo not shown), the inhibition at 10 µM is 56.8%.

Consider `Cc1ccccc1C1(Cc2cccc(C#N)c2)C(=O)Nc2ccc(F)cc21` (stereo not shown), for which the inhibition at 10 µM is 55.5%.

In turn, `COc1ccc(C2(Cc3ccc(C(F)(F)F)o3)C(=O)Nc3ccc(F)cc32)c(OC)c1` (stereo not shown) yielded an inhibition at 10 µM of 60.3%.

Molecule `COc1ccc(Cl)cc1CC1(C)C(=O)Nc2ccc(F)cc21` (stereo not shown) came in with an inhibition at 10 µM of 32%.

As for `CC1(Cc2ccc(F)c(Cl)c2)C(=O)Nc2ccc(F)cc21` (stereo not shown), the inhibition at 10 µM worked out at 52.6%.

As to `Cc1ccc(C2(Cc3csc(C)n3)C(=O)Nc3cccc(Cl)c32)cc1` (stereo not shown), the inhibition at 10 µM worked out at 46%.

Regarding `COC(=O)c1ccc(CC2(c3cccc(F)c3)C(=O)Nc3cccc(Cl)c32)o1` (stereo not shown), the inhibition at 10 µM was 41.5%.

`N#Cc1cccc(CC2(c3ccccc3)C(=O)Nc3ccc(OC(F)(F)F)cc32)c1` (stereo not shown) came in with an inhibition at 10 µM of 32.1%.

Molecule `Cc1nc(CC2(c3ccccc3)C(=O)Nc3ccc(OC(F)(F)F)cc32)cs1` (stereo not shown) gave an inhibition at 10 µM of 31.4%.

`O=C1Nc2ccc(OC(F)(F)F)cc2C1(Cc1ccccn1)c1ccccc1` (stereo not shown) yielded an inhibition at 10 µM of 39.1%.

`Cc1noc(C)c1CC1(c2ccccc2)C(=O)Nc2ccc(OC(F)(F)F)cc21` (stereo not shown) registered an inhibition at 10 µM of 50.4%.

For `Cc1ccc(C2(Cc3ccncc3)C(=O)Nc3ccc(OC(F)(F)F)cc32)cc1` (stereo not shown), the inhibition at 10 µM was determined as 29.1%.

Molecule `Cc1ccc(C2(Cc3cc(C)on3)C(=O)Nc3ccc(OC(F)(F)F)cc32)cc1` (stereo not shown) yielded an inhibition at 10 µM of 40.1%.

As for `Cc1nc(CC2(c3cccc(F)c3)C(=O)Nc3ccc(OC(F)(F)F)cc32)cs1` (stereo not shown), the inhibition at 10 µM came to 34%.

The molecule `CC1(Cc2cccc(F)c2)C(=O)Nc2ccc(OC(F)(F)F)cc21` (stereo not shown) had an inhibition at 10 µM of 33.5%.

Molecule `Cc1nc(CC2(c3sccc3C)C(=O)Nc3ccc(OC(F)(F)F)cc32)cs1` (stereo not shown) gave an inhibition at 10 µM of 37.8%.

Take `Cc1nc(CC2(c3ccccc3)C(=O)Nc3cc(F)ccc32)cs1` (stereo not shown): the inhibition at 10 µM was determined as 42.5%.

Consider `Cc1ccc(C2(Cc3csc(C)n3)C(=O)Nc3cc(F)ccc32)cc1` (stereo not shown), for which the inhibition at 10 µM turned out to be 29.3%.

As for `Cc1ccc(C2(Cc3ccncc3)C(=O)Nc3cc(F)ccc32)cc1` (stereo not shown), the inhibition at 10 µM turned out to be 48.5%.

In turn, `Cc1ccc(C2(Cc3cccc(C(N)=O)c3)C(=O)Nc3cc(F)ccc32)cc1` (stereo not shown) returned an inhibition at 10 µM of 57.5%.

`Cc1nc(CC2(c3cccc(F)c3)C(=O)Nc3cc(F)ccc32)cs1` (stereo not shown) gave an inhibition at 10 µM of 37.5%.

As to `O=C1Nc2cc(F)ccc2C1(Cc1ccc(C(F)(F)F)nc1)c1cccc(F)c1` (stereo not shown), the inhibition at 10 µM amounted to 42.7%.

In turn, `Cc1cc(CC2(c3cccc(F)c3)C(=O)Nc3cc(F)ccc32)no1` (stereo not shown) had an inhibition at 10 µM of 54.9%.

For `NC(=O)c1cccc(CC2(c3cccc(F)c3)C(=O)Nc3cc(F)ccc32)c1` (stereo not shown), the inhibition at 10 µM was 54.1%.

On to `Cc1ccsc1C1(Cc2cccc(C#N)c2)C(=O)Nc2cc(F)ccc21` (stereo not shown), for which the inhibition at 10 µM is 58%.

`Cc1noc(C)c1CC1(c2ccccc2)C(=O)Nc2c(Cl)cccc21` (stereo not shown): the inhibition at 10 µM turned out to be 33%.

Consider `NC(=O)c1cccc(CC2(c3ccccc3)C(=O)Nc3c(Cl)cccc32)c1` (stereo not shown), for which the inhibition at 10 µM came out at 33.3%.

In turn, `O=C1Nc2cc(Cl)cc(Cl)c2C1(Cc1ccncc1)c1ccccc1` (stereo not shown) had an inhibition at 10 µM of 36.4%.

Molecule `CC1(Cc2ccccc2C#N)C(=O)Nc2cc(OC(F)(F)F)ccc21` (stereo not shown) returned an inhibition at 10 µM of 31.2%.

`CC1(Cc2ccccc2C#N)C(=O)Nc2cc(-c3ccccc3Cl)ccc21` (stereo not shown) returned an inhibition at 10 µM of 63.3%.

Turning to `COc1ccc(Cl)cc1C1=NOCC(=O)N1CCOc1ccc(F)cc1`, the inhibition at 10 µM is 38.7%.

`CC1ON=C(Cc2ccccc2)N(CCc2c[nH]c3ccccc23)C1=O` (stereo not shown): the inhibition at 10 µM was found to be 29.6%.

As to `CCOc1ccc(C2=NOC(C)C(=O)N2Cc2cccc(F)c2)cc1` (stereo not shown), the inhibition at 10 µM is 52.7%.

Regarding `CC1ON=C(c2cccc(Cl)c2)N(Cc2cccc(C#N)c2)C1=O` (stereo not shown), the inhibition at 10 µM is 38.7%.

Molecule `CC1ON=C(c2cccc(Cl)c2)N(Cc2ccc3c(c2)OCO3)C1=O` (stereo not shown) gave an inhibition at 10 µM of 31.5%.

Molecule `CC1ON=C(c2ccccc2F)N(Cc2cccc(F)c2)C1=O` (stereo not shown) had an inhibition at 10 µM of 30.2%.

Consider `Cc1cccnc1C1=NOC(Cc2ccccc2)C(=O)N1CCOc1ccc(F)cc1` (stereo not shown), for which the inhibition at 10 µM was 36.2%.

`Cc1cccnc1C1=NOC(Cc2ccccc2)C(=O)N1CCc1ccccc1` (stereo not shown) returned an inhibition at 10 µM of 33.3%.

Molecule `CC1=NOC(Cc2ccccc2)C(=O)N1CC(=O)c1ccccc1F` (stereo not shown) registered an inhibition at 10 µM of 41.6%.

Turning to `CC1ON=C(c2ccc(N(C)C)cc2)N(Cc2cccc(F)c2)C1=O` (stereo not shown), the inhibition at 10 µM was found to be 41.3%.

For `Cc1c(C(=O)NCc2ccc(F)cc2)sc(=O)n1Cc1ccc(Cl)c(Cl)c1`, the inhibition at 10 µM turned out to be 38%.

`Cc1c(C(=O)NCc2ccc([N+](=O)[O-])cc2)sc(=O)n1Cc1ccc(OC(F)(F)F)cc1` yielded an inhibition at 10 µM of 30.2%.

In turn, `O=C(NCc1cccc(C(F)(F)F)c1)c1cn(CCc2c[nH]c3ccccc23)c(=O)s1` gave an inhibition at 10 µM of 35%.

`Cc1c(C(=O)NCc2ccc(C(F)(F)F)cc2)sc(=O)n1CCc1c[nH]c2ccccc12` showed an inhibition at 10 µM of 33.3%.

Molecule `O=C(NCc1cccc(C(F)(F)F)c1)c1cn(CCOc2ccc(F)cc2)c(=O)s1` came in with an inhibition at 10 µM of 30.2%.

`Cc1ccc(C2(Cc3c(C)noc3C)C(=O)Nc3cc(F)ccc32)cc1` (stereo not shown) returned an inhibition at 10 µM of 35.2%.

For `NC(N)=NC(=O)c1nc(Cl)c(N)nc1N` [Amiloride, 3,5-diamino-6-chloro-N-(diaminomethylene)pyrazine-2-carboxamide, reference compound], the inhibition at 25 µM was in the range of 80 to 100%.

The same test, now with this note: ShaI/KChIP 20 cells, three consecutive days, duplicate plates; read-out: IC50 range.
With `NC(N)=NC(=O)c1nc(Cl)c(N)nc1N` [Amiloride, 3,5-diamino-6-chloro-N-(diaminomethylene)pyrazine-2-carboxamide, reference compound], the concentration for half-maximal inhibition (IC50) lay in the range of 20 to 29 µM.

The same test, now with this note: ShaI/KChIP 20 cells, three consecutive days; standard deviation 3 uM; read-out: IC50 mean.
As for `NC(N)=NC(=O)c1nc(Cl)c(N)nc1N` [Amiloride, 3,5-diamino-6-chloro-N-(diaminomethylene)pyrazine-2-carboxamide, reference compound], the IC50 was 24 µM.

The test is the same for the next values; noted with them: read-out: inhibition of ShaI/KChIP response, arbitrary cutoff.
For `NC(N)=NC(=O)c1nc(Cl)c(N)nc1N` [Amiloride, 3,5-diamino-6-chloro-N-(diaminomethylene)pyrazine-2-carboxamide, reference compound], the inhibition at 25 µM was at least 55%.

On to `O=C(O)c1ccccc1Nc1cccc(C(F)(F)F)c1` [flufenamic acid, reference compound], for which the inhibition at 25 µM was at least 55%.
